Consider one compound from ChEMBL document CHEMBL5678818, “Discovery of potent SOS1 inhibitors that block RAS activation via disruption of the RAS-SOS1 interaction” (Proc Natl Acad Sci U S A, 2019).

The term inhibition denotes the percentage by which the read-out fell short of the control.

Test [1] addresses T1, NUAK family SNF1-like kinase 2 (Homo sapiens) (UniProt Q9H093).
T1 sequence (whole entry): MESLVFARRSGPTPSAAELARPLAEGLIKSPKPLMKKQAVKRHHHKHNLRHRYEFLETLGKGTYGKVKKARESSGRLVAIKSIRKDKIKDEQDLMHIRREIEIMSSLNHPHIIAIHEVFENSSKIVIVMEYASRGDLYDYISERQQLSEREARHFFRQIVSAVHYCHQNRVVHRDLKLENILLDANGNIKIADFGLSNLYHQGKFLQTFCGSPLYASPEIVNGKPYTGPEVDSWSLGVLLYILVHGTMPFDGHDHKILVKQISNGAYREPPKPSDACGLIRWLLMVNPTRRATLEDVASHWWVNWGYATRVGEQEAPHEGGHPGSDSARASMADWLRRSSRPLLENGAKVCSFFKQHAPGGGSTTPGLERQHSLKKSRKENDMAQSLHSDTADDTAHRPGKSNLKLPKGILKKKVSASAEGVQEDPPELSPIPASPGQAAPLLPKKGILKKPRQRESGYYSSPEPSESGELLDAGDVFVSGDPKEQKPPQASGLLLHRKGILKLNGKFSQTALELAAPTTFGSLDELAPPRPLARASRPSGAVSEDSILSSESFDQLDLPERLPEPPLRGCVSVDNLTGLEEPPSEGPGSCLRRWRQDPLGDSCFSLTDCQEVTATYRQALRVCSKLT
Nature of the test: Inhibition of SNARK (unknown origin) assessed as residual activity at 100 nM by KINOMEscan analysis relative to control.

For test [2], the target named is MAP kinase-interacting serine/threonine-protein kinase 1 (Homo sapiens) (UniProt Q9BUB5). Nature of the test: Inhibition of MKNK1 (unknown origin) assessed as residual activity at 100 nM by KINOMEscan analysis relative to control.
Test [3] deals with Casein kinase II subunit alpha (Homo sapiens) (UniProt P68400). Put plainly: Inhibition of CSNK2A1 (unknown origin) assessed as residual activity at 100 nM by KINOMEscan analysis relative to control.
The target of test [4] is T2, cGMP-dependent protein kinase 1 (Homo sapiens) (UniProt Q13976).
T2 sequence (whole entry): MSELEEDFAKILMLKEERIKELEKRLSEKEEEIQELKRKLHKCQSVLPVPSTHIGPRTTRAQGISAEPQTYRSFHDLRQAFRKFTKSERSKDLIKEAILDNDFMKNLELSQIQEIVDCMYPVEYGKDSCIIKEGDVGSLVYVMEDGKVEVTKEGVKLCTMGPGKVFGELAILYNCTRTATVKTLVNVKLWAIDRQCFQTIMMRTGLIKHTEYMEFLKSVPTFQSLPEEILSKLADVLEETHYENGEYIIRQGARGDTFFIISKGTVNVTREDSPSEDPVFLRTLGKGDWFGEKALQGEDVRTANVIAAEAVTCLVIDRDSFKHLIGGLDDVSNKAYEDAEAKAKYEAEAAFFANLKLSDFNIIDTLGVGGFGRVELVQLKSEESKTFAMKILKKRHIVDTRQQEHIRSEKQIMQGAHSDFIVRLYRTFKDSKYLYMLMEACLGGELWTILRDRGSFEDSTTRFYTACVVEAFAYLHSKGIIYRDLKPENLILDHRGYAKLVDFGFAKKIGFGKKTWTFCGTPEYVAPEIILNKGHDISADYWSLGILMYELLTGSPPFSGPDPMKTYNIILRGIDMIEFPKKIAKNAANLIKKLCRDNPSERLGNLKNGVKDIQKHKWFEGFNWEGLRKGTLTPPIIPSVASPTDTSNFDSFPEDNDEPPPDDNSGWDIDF
Put plainly: Inhibition of PRKG1 (unknown origin) assessed as residual activity at 100 nM by KINOMEscan analysis relative to control.

Test [5] has as its target Receptor tyrosine-protein kinase erbB-3 (Homo sapiens) (UniProt P21860). Put plainly: Inhibition of ERBB3 (unknown origin) assessed as residual activity at 100 nM by KINOMEscan analysis relative to control.
In test [6] the target is T3, Mitogen-activated protein kinase kinase kinase kinase 3 (Homo sapiens) (UniProt Q8IVH8).
T3 sequence (whole entry): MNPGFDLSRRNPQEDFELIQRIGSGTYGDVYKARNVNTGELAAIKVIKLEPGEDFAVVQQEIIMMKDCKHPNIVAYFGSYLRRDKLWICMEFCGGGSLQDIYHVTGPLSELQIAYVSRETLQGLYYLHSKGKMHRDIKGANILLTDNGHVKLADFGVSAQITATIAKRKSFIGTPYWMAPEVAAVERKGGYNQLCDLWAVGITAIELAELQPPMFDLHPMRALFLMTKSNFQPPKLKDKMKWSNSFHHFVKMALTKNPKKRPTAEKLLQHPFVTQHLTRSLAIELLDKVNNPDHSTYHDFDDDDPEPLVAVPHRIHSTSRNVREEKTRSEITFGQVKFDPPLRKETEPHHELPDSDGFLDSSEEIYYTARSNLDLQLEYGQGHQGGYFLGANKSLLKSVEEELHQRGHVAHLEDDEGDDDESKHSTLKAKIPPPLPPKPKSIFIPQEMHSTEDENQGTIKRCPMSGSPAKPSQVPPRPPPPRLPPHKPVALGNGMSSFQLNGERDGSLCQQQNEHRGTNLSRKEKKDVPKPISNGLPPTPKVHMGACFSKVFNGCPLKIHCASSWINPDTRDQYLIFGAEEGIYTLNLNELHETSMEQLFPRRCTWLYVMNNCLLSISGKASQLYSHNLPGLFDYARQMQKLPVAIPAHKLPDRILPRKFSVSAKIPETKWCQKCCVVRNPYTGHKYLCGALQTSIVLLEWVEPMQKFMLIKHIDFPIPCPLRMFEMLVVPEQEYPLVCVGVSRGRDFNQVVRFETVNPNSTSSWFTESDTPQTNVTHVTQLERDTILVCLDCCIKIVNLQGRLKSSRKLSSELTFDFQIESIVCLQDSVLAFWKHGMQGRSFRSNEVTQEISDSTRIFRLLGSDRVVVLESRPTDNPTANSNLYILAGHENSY
Put plainly: Inhibition of MAP4K3 (unknown origin) assessed as residual activity at 100 nM by KINOMEscan analysis relative to control.

In test [7] the target is GTPase KRas (Homo sapiens) (UniProt P01116). Put plainly: Binding affinity to N-terminal His10-tagged wild-type human KRAS (1 to 169 residues) expressed in Escherichia coli assessed as binding at 1:1 stoichiometry at 100 uM incubated for 1 hr by native MS analysis.
For test [8], the target named is Receptor-type tyrosine-protein kinase FLT3 (Homo sapiens) (UniProt P36888). Put plainly: Inhibition of FLT3 (unknown origin) assessed as residual activity at 100 nM by KINOMEscan analysis relative to control.
For the next test, the species on record is Homo sapiens. Put plainly: Inhibition of N-terminal GST-tagged recombinant human SOS1 H905A mutant (564 to 1049 residues) expressed in Escherichia coli assessed as reduction in KRAS G12C mutant activation at 10 uM by HTRF analysis relative to control. For orientation: Time-resolved FRET reads energy transfer from a long-lived donor to a nearby acceptor.

In test [9] the target is Casein kinase II subunit alpha' (Homo sapiens) (UniProt P19784). Put plainly: Inhibition of CSNK2A2 (unknown origin) assessed as residual activity at 100 nM by KINOMEscan analysis relative to control.

The structures appear in SMILES notation. Calls of active or inactive are those of the source. The calls are words filed in the database; no cut-off is given here.

For `COc1cc2ncnc(N[C@H](C)c3cccc4ccccc34)c2cc1OC`, the Activity was determined as 92% in [1]; 61% in test [2]; 96% in test [3]; 96% in [4]; 89% in test [5]; 85% in test [6]. Moreover, the Activity in [8] was found to be 83%; in test [9], 87%. In addition, the result in [7] was inactive. For the same compound, the inhibition in the test filed under Homo sapiens turned out to be 52%.
